Source: ChEMBL document CHEMBL1127237, “Analogs of UK 14,304 as 2-adrenoceptor agonists. Twist and agent polarity as design elements” (Bioorg Med Chem Lett, 1994)

Columns and labels:
[1] = target: T1, Adrenergic receptor alpha-1 (Homo sapiens, UniProt P35348+P25100+P35368); experiment: Binding affinity towards Alpha-1 adrenergic receptor in human brain
T1 sequence (P35348 whole entry): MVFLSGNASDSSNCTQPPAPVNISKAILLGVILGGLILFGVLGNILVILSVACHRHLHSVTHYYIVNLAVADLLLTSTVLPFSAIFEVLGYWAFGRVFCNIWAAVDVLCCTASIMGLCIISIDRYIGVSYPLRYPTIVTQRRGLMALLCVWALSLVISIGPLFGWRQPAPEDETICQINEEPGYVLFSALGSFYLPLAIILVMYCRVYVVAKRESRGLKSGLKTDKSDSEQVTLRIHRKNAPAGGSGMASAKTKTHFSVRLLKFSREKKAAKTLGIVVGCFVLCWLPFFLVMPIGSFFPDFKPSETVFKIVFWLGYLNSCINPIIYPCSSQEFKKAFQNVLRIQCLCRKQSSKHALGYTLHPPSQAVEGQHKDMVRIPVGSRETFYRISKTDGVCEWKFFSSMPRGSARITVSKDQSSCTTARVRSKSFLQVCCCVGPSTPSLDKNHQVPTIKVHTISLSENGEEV
T1 sequence (P25100 whole entry): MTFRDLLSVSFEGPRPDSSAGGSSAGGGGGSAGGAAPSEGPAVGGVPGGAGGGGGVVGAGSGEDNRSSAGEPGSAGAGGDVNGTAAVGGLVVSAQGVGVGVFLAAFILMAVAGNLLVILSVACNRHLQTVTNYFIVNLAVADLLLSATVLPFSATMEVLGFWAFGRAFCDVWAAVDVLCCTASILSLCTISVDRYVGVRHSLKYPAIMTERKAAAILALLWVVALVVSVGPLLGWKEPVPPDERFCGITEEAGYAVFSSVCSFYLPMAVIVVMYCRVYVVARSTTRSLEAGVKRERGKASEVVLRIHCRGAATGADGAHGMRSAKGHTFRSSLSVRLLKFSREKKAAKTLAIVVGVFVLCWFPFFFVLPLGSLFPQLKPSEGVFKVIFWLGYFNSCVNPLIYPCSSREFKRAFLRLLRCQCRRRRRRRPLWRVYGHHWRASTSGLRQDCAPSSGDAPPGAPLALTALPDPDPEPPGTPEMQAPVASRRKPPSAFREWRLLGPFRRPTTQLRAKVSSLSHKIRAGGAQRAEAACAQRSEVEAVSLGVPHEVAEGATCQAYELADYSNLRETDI
T1 sequence (P35368 whole entry): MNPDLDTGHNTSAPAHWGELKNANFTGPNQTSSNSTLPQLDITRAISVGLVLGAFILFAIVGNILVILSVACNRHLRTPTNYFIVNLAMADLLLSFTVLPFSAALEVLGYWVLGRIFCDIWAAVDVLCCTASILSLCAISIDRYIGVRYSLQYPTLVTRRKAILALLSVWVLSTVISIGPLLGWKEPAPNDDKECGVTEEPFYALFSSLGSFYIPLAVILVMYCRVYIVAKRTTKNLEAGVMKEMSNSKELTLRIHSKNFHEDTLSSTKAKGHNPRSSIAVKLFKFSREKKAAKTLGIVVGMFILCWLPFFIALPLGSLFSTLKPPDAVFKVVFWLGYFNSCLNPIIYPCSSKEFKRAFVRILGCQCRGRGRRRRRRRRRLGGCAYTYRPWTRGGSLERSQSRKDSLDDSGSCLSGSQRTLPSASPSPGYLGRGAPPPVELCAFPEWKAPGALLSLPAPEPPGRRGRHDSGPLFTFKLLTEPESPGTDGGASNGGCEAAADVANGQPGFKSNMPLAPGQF

[2] = target: T2, Adrenergic receptor alpha-2 (Homo sapiens, UniProt P08913+P18825+P18089); experiment: Binding affinity towards Alpha-2 adrenergic receptor in HT-29 cells; format: cell-based
T2 sequence (P08913 whole entry): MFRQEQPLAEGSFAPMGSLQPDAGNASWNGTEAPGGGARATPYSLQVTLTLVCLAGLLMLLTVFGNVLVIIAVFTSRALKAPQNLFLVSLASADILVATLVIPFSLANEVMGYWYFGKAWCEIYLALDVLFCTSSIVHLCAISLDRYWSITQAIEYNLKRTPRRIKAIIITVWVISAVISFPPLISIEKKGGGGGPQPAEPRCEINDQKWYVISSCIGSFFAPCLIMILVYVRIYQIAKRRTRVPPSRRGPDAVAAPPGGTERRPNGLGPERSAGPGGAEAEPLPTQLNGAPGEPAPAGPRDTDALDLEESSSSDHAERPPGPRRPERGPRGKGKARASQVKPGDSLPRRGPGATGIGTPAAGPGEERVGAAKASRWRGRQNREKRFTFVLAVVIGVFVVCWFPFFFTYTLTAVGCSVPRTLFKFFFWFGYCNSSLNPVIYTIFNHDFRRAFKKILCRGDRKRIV
T2 sequence (P18825 whole entry): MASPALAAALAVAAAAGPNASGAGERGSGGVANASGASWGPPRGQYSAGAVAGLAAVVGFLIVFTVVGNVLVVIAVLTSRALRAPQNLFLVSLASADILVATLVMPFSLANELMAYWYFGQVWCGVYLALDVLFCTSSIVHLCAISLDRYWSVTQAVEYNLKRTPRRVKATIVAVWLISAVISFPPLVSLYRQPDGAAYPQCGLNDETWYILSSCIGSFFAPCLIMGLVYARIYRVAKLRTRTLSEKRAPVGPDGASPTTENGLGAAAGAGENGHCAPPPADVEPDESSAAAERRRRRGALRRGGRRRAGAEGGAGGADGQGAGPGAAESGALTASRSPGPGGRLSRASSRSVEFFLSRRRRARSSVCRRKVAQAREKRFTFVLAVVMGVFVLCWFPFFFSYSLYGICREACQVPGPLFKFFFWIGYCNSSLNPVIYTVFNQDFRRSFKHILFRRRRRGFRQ
T2 sequence (P18089 whole entry): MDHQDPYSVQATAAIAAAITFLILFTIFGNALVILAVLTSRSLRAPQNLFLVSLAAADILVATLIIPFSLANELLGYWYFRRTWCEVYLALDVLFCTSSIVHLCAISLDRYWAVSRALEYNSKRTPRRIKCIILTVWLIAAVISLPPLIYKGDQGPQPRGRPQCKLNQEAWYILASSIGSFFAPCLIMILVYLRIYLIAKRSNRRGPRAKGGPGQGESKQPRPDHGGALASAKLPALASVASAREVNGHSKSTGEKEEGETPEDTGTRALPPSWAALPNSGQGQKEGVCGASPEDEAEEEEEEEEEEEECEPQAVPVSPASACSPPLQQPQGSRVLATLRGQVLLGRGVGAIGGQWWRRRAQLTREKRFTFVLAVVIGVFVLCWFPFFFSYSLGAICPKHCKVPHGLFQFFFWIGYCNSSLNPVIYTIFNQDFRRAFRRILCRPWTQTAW

[3] = Distribution coefficient between octanol and pH 7.2 phosphate buffer; format: physicochemical; conditions: for logD: octanol/phosphate buffer

Row | Ki [1] | Ki [2] | logD [3] | Structure (SMILES) | Log DC ([3]; octanol/water)
1 | 5.1 µM | 0.046 µM | – | c1cc2c(cc1NC1=NCCN1)NCCN2 | –
2 | 8.7 µM | 0.0068 µM | -2.08 | Cc1c(NC2=NCCN2)ccc2c1NCCN2 | –
3 | 1.1 µM | 0.006 µM | -1.74 | Brc1c(NC2=NCCN2)ccc2c1NCCN2 | –

The next lines start with the molecule.

Row | Structure (SMILES) | Ki [1] | Ki [2] | logD [3] | Log DC ([3]; octanol/water)
4 | Cc1c(NC2=NCCN2)ccc2nccnc12 | 1.4 µM | 0.0013 µM | 0.16 | –
5 | c1cnc2cc(NC3=NCCN3)ccc2n1 | 11 µM | 0.064 µM | – | –
6 | Brc1c(NC2=NCCN2)ccc2nccnc12 [BRIMONIDINE] | – | – | – | 1.5
